Tests used:
[1] = molecular target: T1, GST tagged LXRbeta LBD (ligand binding domain) (Homo sapiens, UniProt P55055); assay: LanthaScreen TR-FRET Liver X Receptor Coactivator Assay, LXR beta-LBD; assay type: biochemical; details: relative to reference T0901317; for EC50: Inflection Point (potency), co-activator recruitment, read-out: LXR beta IP; for Emax: activity at max dose (efficacy), read-out: LXR beta act @ max dose (%)
T1 construct: purchased Invitrogen pv4658.pps
T1 sequence (P55055 222-460 limits assumed): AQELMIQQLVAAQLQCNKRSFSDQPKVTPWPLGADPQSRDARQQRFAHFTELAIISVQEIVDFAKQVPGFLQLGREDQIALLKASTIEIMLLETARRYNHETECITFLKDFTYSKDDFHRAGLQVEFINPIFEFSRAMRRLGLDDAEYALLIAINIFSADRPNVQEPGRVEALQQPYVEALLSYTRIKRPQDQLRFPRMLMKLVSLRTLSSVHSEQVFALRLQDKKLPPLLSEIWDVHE
Procedure, shortened: (§1)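 LXR LBD protein mixed with test compound, then fluorescein-labelled coactivator peptide plus terbium anti-GST antibody added; after room-temperature incubation, TR-FRET read. Inflection point and Emax derived from coactivator recruitment relative to reference dual agonist T0901317.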

[2] = molecular target: T2, GST tagged LXRalpha LBD (ligand binding domain) (Homo sapiens, UniProt Q13133); assay: LanthaScreen TR-FRET Liver X Receptor Coactivator Assay, LXR alpha-LBD; assay type: biochemical; details: relative to reference T0901317; for EC50: Inflection Point (potency), co-activator recruitment, read-out: LXR alpha IP; for Emax: activity at max dose (efficacy), read-out: LXR alpha act @ max dose (%)
T2 construct: purchased Invitrogen pv4655
T2 sequence (Q13133 209-447 limits assumed): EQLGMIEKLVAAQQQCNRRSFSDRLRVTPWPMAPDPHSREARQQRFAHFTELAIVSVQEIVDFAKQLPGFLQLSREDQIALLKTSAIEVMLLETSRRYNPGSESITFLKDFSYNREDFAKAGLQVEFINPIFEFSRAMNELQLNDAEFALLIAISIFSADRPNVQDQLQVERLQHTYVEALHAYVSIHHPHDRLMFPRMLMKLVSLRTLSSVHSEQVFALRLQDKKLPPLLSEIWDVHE
Procedure, shortened: as §1

EC50 [1] [µM] | Emax [1] [%] | EC50 [2] [µM] | Emax [2] [%] | Compound
0.021 | 89 | 0.488 | 45 | CC(C)(C)OC(=O)NC1CN(C(=O)c2ccc(N3CCC(C4CCN(C(=O)[C@](O)(c5ccccc5)C(F)(F)F)CC4)CC3)cc2Cl)C1 [Example E-56, tert-butyl {1-[(2-chloro-4-{1′-[(2R)-3,3,3-trifluoro-2-hydroxy-2-phenylpropanoyl]-4,4′-bipiperidin-1-yl}phenyl)carbonyl]azetidin-3-yl}carbamate]
0.141 | 99 | 1.43 | 43 | CC(C)(C)OC(=O)NCC1CN(C(=O)c2ccc(N3CCC(C4CCN(C(=O)[C@](O)(c5ccccc5)C(F)(F)F)CC4)CC3)cc2Cl)C1 [Example E-39, tert-butyl ({1-[(2-chloro-4-{1′-[(2R)-3,3,3-trifluoro-2-hydroxy-2-phenylpropanoyl]-4,4′-bipiperidin-1-yl}phenyl)carbonyl]azetidin-3-yl}methyl)carbamate]
0.027 | 115 | 1.1 | 61 | CC(C)C(O)(C(=O)N1CCC(C2CCN(c3ccc(C(=O)N(C)C)c(Cl)n3)CC2)CC1)C(F)(F)F (stereo in doubt) [Example B-5, 2-chloro-6-{1′-[(2R)-2-hydroxy-3-methyl-2-(trifluoromethyl)butanoyl]-4,4′-bipiperidin-1-yl}-N,N-dimethylpyridine-3-carboxamide]

More lines, now with the values behind:

Compound | EC50 [1] [µM] | Emax [1] [%] | EC50 [2] [µM] | Emax [2] [%]
CC(C)(C)OC(=O)NC1CN(C(=O)c2ccc(N3CCC(C4CCN(C(=O)OC(C)(C)C)CC4)CC3)cc2Cl)C1 [Example E-68, tert-butyl 1′-[4-({3-[(tert-butoxycarbonyl)amino]azetidin-1-yl}carbonyl)-3-chlorophenyl]-4,4′-bipiperidine-1-carboxylate] | 0.029 | 92 | 0.367 | 64
CN(C)C(=O)c1ccc(N2CCC(C3CCN(S(=O)(=O)c4ccccc4C#N)CC3)CC2)cc1Cl [Example A-102, 2-chloro-4-{1′-[(2-cyanophenyl)sulfonyl]-4,4′-bipiperidin-1-yl}-N,N-dimethylbenzamide] | 0.045 | 130 | 57.1 | 48
